Converted amounts (≈) assume the structure as drawn.
What was measured:
[1] = biological target: AcpS enzyme (Escherichia coli, UniProt P24224); test: Measurement of AcpS inhibition ([3H]acetyl-CoA incorporation into apo-ACP); assay type: biochemical; settings: % activity vs blank-subtracted counts; for activity at 50 µM: test compound 50 uM; for remaining activity at 500 µM: test compound 500 uM
Procedure: [^3H]Acetyl-CoA was mixed as 1 volume of Perkin Elmer NET290 radiolabeled stock (e.g. 0.1 mCi/ml, 3.7 Ci/mmol in Na-acetate, pH 4.5-5.0=27 μM) with 1.2 volumes of 1 mM unlabelled acetyl-CoA (Sigma). Trichloroacetic acid was prepared as a 10% w/v solution. Bovine serum albumin was prepared as a 25 mg/ml solution in water. DTT was prepared as a 50 mM solution in water.
• 1. A standard reaction contained the following in a total volume of 10 μl:
• 2. Tubes were incubated at RT. [^3H]acetyl-CoA was added last to start the reaction. To stop the reaction, 2 μl was removed to a 1.5-ml microfuge tube containing 800 μl cold 10% TCA. Up to four time points were collected for each reaction, e.g. at 5 min, 10 min, 30 min, and 60 min. • 3. 20 μl of 25 mg/ml BSA was added to each tube, mixed and incubated on ice for 10 min, then centrifuged at 12,000 g for 5 min to form a pellet. Supernatant was removed using P1000. • 4. Each pellet was washed twice with 800 μl of cold 10% TCA each time, then centrifuged at 12,000 g for 5 min after each wash. The supernatant was discarded. Each pellet was resuspended in 50 μl of formic acid. The suspension was transferred to a scintillation vial and radioactivity was measured in 2 ml of liquid scintillation cocktail.
The random (stochastic) error in scintillation counting is proportional to the square root of the counts (not dpm) accumulated in the counting period; i.e. 10% for 100, 3.3% for 1,000, 1% for 10,000, etc. Provided radioactive counts (dpm) are in the thousands, the assay provides useful data. Results are reported in terms of % activity with respect to the blank-subtracted counts for working substrate. A % activity of less than about 40% is indicative of AcpS enzyme inhibition by the test compound at that concentration.

[2] = test system: E. coli D22; test: MIC, NCCLS M7-A6 broth microdilution, E. coli D22; assay type: cell-based; settings: Escherichia coli, D22, 16 to 20 h, 35 degrees Celsius
Procedure: (§1) Susceptibilities to the compounds were determined using the National Committee for Clinical Laboratory Standards (NCCLS) M7-A6 broth microdilution method. Cation-adjusted Mueller-Hinton broth (Ca^2+, 25 μg/mL; Mg^2+, 12.5 μg/mL) microdilution panels were prepared to contain antimicrobial doubling dilution concentrations of an appropriate range. DMSO (dimethylsulfoxide) controls were incorporated into the panel to mimic the quantity of DMSO used in dissolving some of the compounds at the higher concentrations. Each final panel well volume was 100 μL with a bacterial inoculum of 5×10^5 CFU (colony forming units)/mL of the relevant bacterium. Panels were read following 16 to 20 h of incubation at 35 degrees Celsius in ambient air. The MIC (minimum inhibitory concentration) was defined as the lowest concentration of antimicrobial inhibiting visible growth.

[3] = test system: Methicillin-Resistant Staph. aureus (MRSA); test: MIC, NCCLS M7-A6 broth microdilution, MRSA; assay type: cell-based; settings: Staphylococcus aureus, MRSA, 16 to 20 h, 35 degrees Celsius
Procedure: as §1

[4] = test system: Streptococcus pneumoniae Group A; test: MIC against Streptococcus pneumoniae Group A; assay type: cell-based; settings: initial measurement, Todd Hewitt broth
Procedure: as §1
Generally following the procedure of Example 9, but using Todd Hewitt broth (beef heart digest) rather than Mueller-Hinton broth, MICs were initially measured against Streptococcus pneumoniae Group A for compounds of the present invention as follows: […]

Sequence of AcpS enzyme (P24224 whole entry): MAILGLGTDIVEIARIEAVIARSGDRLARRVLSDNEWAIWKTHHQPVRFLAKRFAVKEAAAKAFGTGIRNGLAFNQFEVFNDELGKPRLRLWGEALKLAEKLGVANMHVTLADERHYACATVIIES

MIC [4] | SMILES | activity at 50 µM [1] | remaining activity at 500 µM [1] | MIC [2] | MIC [3]
 | Cc1ccc(C2(c3cccc(Cl)c3)C=C(c3nnn[nH]3)SC2)c2ccccc12 (stereo not shown) [DNM0575, 5-(4-(5-Chlorophenyl)-4-(4-methylnaphthalen-1-yl)thiophen-2-yl)-1H-tetrazole] | 5.86% | 0.23% | > 125 µM | 8 µM (≈ 3.24 µg/mL)
 | Cc1ccc(-c2cc(-c3nnn[nH]3)sc2Cc2ccc(Cl)cc2)c2ccccc12 [DNM0577, 5-(5-(4-Chlorobenzyl)-4-(4-methylnaphthalen-1-yl)thiophen-2-yl)-1H-tetrazole] | 5.54% | 0.4% | > 125 µM | 8 µM (≈ 3.34 µg/mL)
< 0.25 µM | Cc1c(-c2nnn[nH]2)sc(-c2ccc(C)c3ccccc23)c1-c1ccc(C)c2ccccc12 [DNM0620, 5-(4,5-Bis(4-methylnaphthalen-1-yl)-3-methylthiophen-2-yl)-1H-tetrazole] |  |  |  | 
< 0.25 µM | Cc1c(-c2nnn[nH]2)sc(-c2ccc(Cl)cc2C(C)C)c1-c1ccc(Cl)cc1C(C)C [DNM0631, 5-(4,5-Bis(4-chloro-2-isopropylphenyl)-3-methylthiophen-2-yl)-1H-tetrazole] |  |  |  | 

Source: patent publication US9012655B2, “Antimicrobial/adjuvant compounds and methods” (Denouamed, Inc., priority 2011, dated 2015)
